The test concerns left insula/frontal operculum of ADHD and control groups. Kind of test: fMRI during N-Back working memory and sustained attention task, on and off medication. Type of test: in vivo. Particulars: 1-B, 2-B and 3-B N-Back conditions, 0.2 mg/kg and 0.4 mg/kg MP compared with placebo. From the text:
A General Electric Signa EXCITE 3.0 Tesla MRI scanner is used for implementing the present invention although any of a number of commercial MRI scanners having 3.0 or 1.5 Tesla fields could be used. Typical imaging parameters involve, for example, the acquisition of 36 contiguous axial slices that cover the entire brain (typically 4 mm thick) using a blipped gradient-echo, echoplanar pulse sequence (echo time (TE)=25 msec; interscan period (TR)=[…]; field of view (FOV)=24 cm; 64×64 voxel matrix; 3.75 mm.×3.75 mm in-plane resolution). High resolution (124 axial slices) spoiled GRASS (gradient-recalled at steady-state) anatomic images [TE=3.9 ms; TR (repetition time)=9.5 ms, 120 flip angle, NEX (number of excitations)=1, slice thickness=1.0 mm, FOV=24 cm, matrix size=256×224] are acquired prior to functional imaging for anatomical localization of functional activation and co-registration. Stimulus presentation and general communication to the patient in the MR scanner is accomplished with stereo audio headphones and computer generated images fed into a digital LCD projector which are back projected to the subject and viewed by the patient through prismatic glasses. Subject responses are recorded on a small hand held keyboard or response device including multiple response buttons. […]

The structures appear in SMILES notation.

Take `COC(=O)C(c1ccccc1)C1CCCCN1` (stereo not shown) [MP, Methylphenidate]: the “Group differences (ADHD vs control) in brain activation (percent MR signal intensity)” value is on record as “tended to disappear”.

Values taken from patent US20050267357A1, “fMRI system for detecting symptoms associated with Attention Deficit Hyperactivity Disorder” (priority 2003, published 2005).
